Values after ≈ are worked out from the molar mass of the structure shown.
Key:
Plasmodium falciparum [1] = assay: Antiplasmodial activity against chloroquine sensitive Plasmodium falciparum GC03 infected in human erythrocyte assessed as inhibition of parasite growth incubated for 48 hrs by SYBR Green dye based fluorescence assay; format: functional, organism-based
[2] = Retention time of the compound by HPLC-MS analysis; format: physicochemical
Plasmodium falciparum [3] = assay: Antiplasmodial activity against Plasmodium falciparum K1 infected in human erythrocyte assessed as inhibition of parasite growth incubated for 72 hrs by [3H]-hypoxanthine incorporation based liquid scintillation counting method; format: functional, organism-based
Plasmodium falciparum [4] = assay: Antiplasmodial activity against chloroquine resistant Plasmodium falciparum RKL9 infected in human erythrocyte assessed as inhibition of parasite growth incubated for 24 hrs by three fold serial dilution assay; format: functional
Plasmodium falciparum [5] = assay: Antiplasmodial activity against mixture of chloroquine resistant Plasmodium falciparum RKL 303-chloroquine sensitive Plasmodium falciparum 3D7 infected in human erythrocyte assessed as inhibition of parasite growth incubated for 48 hrs by Giemsa staining based microscopic analysis; format: functional, organism-based
Plasmodium berghei = assay: Antimalarial activity against Plasmodium berghei ANKA infected in Swiss albino mouse assessed as reduction in parasitemia at 50 micromol/kg,po administrated for 4 days by Giemsa staining based microscopic analysis; format: functional; set-up: scale not given: the % may be the effect or the level left; settings: dose 50 µmol/kg, time 4 day
Plasmodium falciparum [6] = assay: Antiplasmodial activity against chloroquine sensitive Plasmodium falciparum 3D7 assessed as inhibition of parasite growth incubated for 48 hrs by Malstat reagent based spectrophotometric; format: functional, organism-based; settings: 3D7, 48 h
Plasmodium falciparum [7] = assay: Antimalarial activity against Plasmodium falciparum 3D7 assessed as reduction of parasite growth at 25 uM incubated for 96 hrs by SYBR green I dye based fluorescence assay relative to control; format: functional; set-up: scale not given: the % may be the effect or the level left
Plasmodium falciparum [8] = assay: Antiplasmodial activity against chloroquine resistant Plasmodium falciparum K14 assessed as inhibition of parasite growth incubated for 48 hrs by [3H]-hypoxanthine incorporation based microbeta scintillation counting method; format: functional, organism-based
Plasmodium falciparum [9] = assay: Antiplasmodial activity against chloroquine resistant Plasmodium falciparum RKL-2 assessed as inhibition of parasite growth incubated for 36 to 40 hrs by Giemsa staining based microscopic analysis; format: functional, organism-based
Plasmodium falciparum [10] = assay: Antiplasmodial activity against chloroquine resistant Plasmodium falciparum K14 assessed as inhibition of parasite growth incubated for 42 hrs by [3H]-hypoxanthine incorporation based microbeta scintillation counting method; format: functional, organism-based
Plasmodium falciparum [11] = assay: Antimalarial activity against Plasmodium falciparum 3D7 assessed as inhibition of parasite growth by measuring minimum inhibitory concentration by microassay; format: functional
Plasmodium falciparum [12] = assay: Antimalarial activity against Plasmodium falciparum 3D7 assessed as reduction of parasite growth incubated for 96 hrs by SYBR green I dye based fluorescence assay; format: functional, organism-based; settings: 3D7, 96 h
[13] = Selectivity index, ratio of CC50 for cytotoxicity against human HepG2 cells by MTT assay to EC50 for antiplasmodial activity against erythrocytic stage of Plasmodium falciparum NF54 by [3H]-hypoxanthine incorporation based liquid scintillation counting method; format: toxicity, cell-based; settings: read-out: Ratio CC50/EC50
Plasmodium falciparum [14] = assay: Antiplasmodial activity against erythrocytic stage of Plasmodium falciparum 3D7 assessed as reduction of parasite growth incubated for 100 hrs by SYBR Green dye based fluorescence assay; format: functional, organism-based; settings: 3D7, 100 h
[15] = Selectivity index, ratio of CC50 for cytotoxicity against human HepG2 cells by MTT assay to EC50 for antiplasmodial activity against erythrocytic stage of Plasmodium falciparum K1 by [3H]-hypoxanthine incorporation based liquid scintillation counting method; format: toxicity, cell-based; settings: read-out: Ratio CC50/EC50
[16] = Cytotoxicity against human HepG2 cells assessed as reduction in cell viability incubated for 72 hrs by MTT assay; format: toxicity, cell-based
Plasmodium falciparum [17] = assay: Antiplasmodial activity against erythrocytic stage of Plasmodium falciparum NF54 assessed as reduction of parasite growth incubated for 48 hrs by [3H]-hypoxanthine incorporation based beta-plate liquid scintillation counting method; format: functional, organism-based
Plasmodium falciparum [18] = assay: Antiplasmodial activity against erythrocytic stage of Plasmodium falciparum K1 assessed as reduction of parasite growth incubated for 48 hrs by [3H]-hypoxanthine incorporation based beta-plate liquid scintillation counting method; format: functional, organism-based
Falcipain 2 = molecular target: T1, Falcipain 2 (Plasmodium falciparum, UniProt Q9N6S8); assay: Inhibition of Plasmodium falciparum recombinant His-tagged falcipain-2 expressed in Escherichia coli assessed as inhibition constant using Cbz-Phe-Arg-AMC as substrate by fluorescence spectrophotometer assay
T1 sequence (Q9N6S8 whole entry): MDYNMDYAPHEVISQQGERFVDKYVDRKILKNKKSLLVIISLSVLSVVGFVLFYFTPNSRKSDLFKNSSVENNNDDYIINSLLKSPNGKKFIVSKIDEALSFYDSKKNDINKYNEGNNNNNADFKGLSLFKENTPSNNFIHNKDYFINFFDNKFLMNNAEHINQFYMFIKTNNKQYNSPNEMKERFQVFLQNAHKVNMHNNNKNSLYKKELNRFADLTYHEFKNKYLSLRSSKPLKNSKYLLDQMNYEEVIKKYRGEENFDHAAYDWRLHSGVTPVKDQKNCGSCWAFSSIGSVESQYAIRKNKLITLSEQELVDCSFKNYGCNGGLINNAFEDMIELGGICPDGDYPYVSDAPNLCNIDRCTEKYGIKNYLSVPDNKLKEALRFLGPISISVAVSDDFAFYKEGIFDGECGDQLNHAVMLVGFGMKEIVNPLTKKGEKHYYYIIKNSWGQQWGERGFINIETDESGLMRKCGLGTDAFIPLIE

`N=C(N)c1ccc(-c2cn(-c3ccc(C(=N)N)cc3)nn2)cc1` showed an IC50 (Plasmodium falciparum [1]) of 87 nM.
`N=C(N)c1ccc(-n2cc(-c3cccc(C(=N)N)c3)nn2)cc1` gave an IC50 (Plasmodium falciparum [1]) of 440 nM.
Work on `N=C(N)c1ccc(-c2cn(-c3cccc(C(=N)N)c3)nn2)cc1` yielded an IC50 (Plasmodium falciparum [1]) of 276 nM.
With `C=C(C)[C@H](O)[C@@H](O)C[C@@H](C)C1=C2C[C@H](O)[C@H]3[C@@]4(C)CCC(=O)C(C)(C)[C@@H]4CC[C@]3(C)[C@@]2(C)CC1` the Retention_time [2] was 23 min and the IC50 (Plasmodium falciparum [3]) was 6.98 µM.
For `O=C(N/N=C/C=C/c1ccccc1)c1ccncc1`, the “inhibition (INH)” value (Plasmodium falciparum [4]) was 80%.
With `O=C(N/N=C/c1ccc(O)cc1)c1ccncc1` the “inhibition (INH)” value (Plasmodium falciparum [4]) was 90%.
For `COc1ccc(/C=C/C(=O)c2ccc(-n3cnc4ccccc43)cc2)c(OC)c1`, the IC50 (Plasmodium falciparum [5]) was 1.1 µg/mL (≈ 2.86 µM).
In the case of `COc1ccc(/C=N/NC(=O)c2ccncc2)cc1O`, the “inhibition (INH)” value (Plasmodium falciparum [4]) is reported as 91%.
With `Cc1ccc(-n2cc(C=O)c(-c3ccccc3)n2)cc1` the Activity (Plasmodium berghei) was 85%.
Work on `Cc1ccc(-n2cc(C(=O)O)c(-c3ccccc3)n2)cc1` yielded an Activity (Plasmodium berghei) of 95%.
Work on `O=Cc1cn(-c2ccc(Cl)cc2)nc1-c1ccccc1` yielded an Activity (Plasmodium berghei) of 83%.
In the case of `CC(=O)Nc1cc(/C=C/c2ccc(F)cc2)cc2cc(-c3ccc(F)cc3)[nH]c12`, the IC50 (Plasmodium falciparum [6]) is reported as 2140 nM.
`COC(=O)[C@H](Cc1ccc(O)c(-c2ccc3ccccc3c2)c1)NC(=O)C(=O)c1c[nH]c2ccccc12` showed an Activity (Plasmodium falciparum [7]) of 60%.
For `COc1ccc(N2C(=O)[C@@H](Oc3ccc(Cl)cc3Cl)[C@H]2c2ccc(NC(=O)N3CCOCC3)cc2)cc1`, the IC50 (Plasmodium falciparum [8]) was 21 µM.
Compound `CCN(Cc1cc(C2(C)OOC(c3ccncc3)OO2)ccc1O)c1ccccc1` (centres undefined) has an IC50 (Plasmodium falciparum [9]) of 5.3 µg/mL (≈ 13 µM).
With `COC(=O)[C@H](Cc1ccc(O)c(-c2ccc(C(F)(F)F)cc2)c1)NC(=O)C(=O)c1c[nH]c2ccccc12` the Activity (Plasmodium falciparum [7]) was 60%.
Compound `COC(=O)[C@H](Cc1ccc(O)c(I)c1)NC(=O)C(=O)c1c[nH]c2ccccc12` has an Activity (Plasmodium falciparum [7]) of 20%.
Work on `CCN(Cc1cc(C2(C)OOC(c3ccccc3)OO2)ccc1O)c1ccccc1` (centres undefined) yielded an IC50 (Plasmodium falciparum [9]) of 5.3 µg/mL (≈ 13 µM).
`CCN(Cc1cc(C2(C)OOC(c3cccs3)OO2)ccc1O)c1ccccc1` (centres undefined) showed an IC50 (Plasmodium falciparum [9]) of 5.3 µg/mL (≈ 12.8 µM).
In the case of `CCN(CC)c1ccc(/N=C/c2cccc(CN3CCOCC3)c2O)cc1`, the IC50 (Plasmodium falciparum [10]) is reported as 2280 nM.
Work on `Cc1ccc(C2=C/C(=C/c3cc4cc(C)ccc4nc3Cl)C(=O)O2)cc1` yielded an MIC (Plasmodium falciparum [11]) of 50 µg/mL (≈ 138 µM).
For `COC(=O)[C@H](Cc1ccc(O)c(-c2ccc(F)cc2)c1)NC(=O)C(=O)c1c[nH]c2ccccc12`, the EC50 (Plasmodium falciparum [12]) was 1300 nM and the Activity (Plasmodium falciparum [7]) was 60%.
In the case of `CC1(C)C2CC=C(CC(=O)Oc3ccnc4cc(Cl)ccc34)[C@@H]1C2`, the selectivity ratio [13] is reported as 0.7, the EC50 (Plasmodium falciparum [14]) is reported as over 50 µM and the selectivity ratio [15] is reported as over 976. The CC50 at 72 h [16] was over 160 µM, the EC50 (Plasmodium falciparum [17]) was 23.3 µM and the EC50 (Plasmodium falciparum [18]) was 164 nM.
For `Oc1ccccc1/N=C/c1cccc(CN2CCOCC2)c1O`, the IC50 (Plasmodium falciparum [10]) was 2280 nM.
In the case of `COC(=O)[C@H](Cc1ccc(O)c(-c2ccc(C(C)(C)C)cc2)c1)NC(=O)C(=O)c1c[nH]c2ccccc12`, the Activity (Plasmodium falciparum [7]) is reported as 60%.
In the case of `Oc1ccc(/N=C/c2cccc(CN3CCOCC3)c2O)cc1`, the IC50 (Plasmodium falciparum [10]) is reported as 2280 nM.
With `N=C(NC(=O)OCc1ccccc1)NC(=O)c1ccc(C(=O)OCc2ccccc2)o1` the Ki (Falcipain 2) was 2690 nM.

From ChEMBL document CHEMBL5352391, “New structural classes of antimalarials” (Eur J Med Chem, 2022)
